Test results as given in BindingDB's records for doi:10.1016/0960-894X(96)00232-6 (1996).

How the values were obtained:
[1] = Inhibition of ET- 1 stimulated arachidonic acid release (AAR) in cultured rabbit renal vascular smooth muscle cells expressing the endothelin B receptor.
[2] = Inhibition of ET- 1 stimulated arachidonic acid release (AAR) in cultured rabbit renal vascular smooth muscle cells expressing the endothelin A receptor.
[3] = Compound was evaluated for the receptor binding activity in rabbit artery vascular smooth muscle cells expressing Endothelin A receptor

Row | IC50 [1] [µM] | IC50 [2] [µM] | IC50 [3] [µM] | Structure (SMILES)
1 | 0.74 | 3.4 |  | COc1cc2c(Sc3ccc4c(c3)OCO4)c(C(=O)O)n(Cc3ccc4c(c3)OCO4)c2cc1OCc1ccccc1 [1-Benzo[1,3]dioxol-5-ylmethyl-3-(benzo[1,3]dioxol-5-ylsulfanyl)-6-benzyloxy-5-methoxy-1H-indole-2-carboxylic acid]
2 |  | 0.065 |  | COc1ccc(Sc2c(C(=O)O)n(Cc3ccc4c(c3)OCO4)c3cc4c(cc23)OCO4)cc1OC [5-Benzo[1,3]dioxol-5-ylmethyl-7-(3,4-dimethoxy-phenylsulfanyl)-5H-[1,3]dioxolo[4,5-f]indole-6-carboxylic acid]
3 |  |  | 23 | COc1cccc(Sc2c(C(=O)O)oc3ccccc23)c1 [3-(3-Methoxy-phenylsulfanyl)-benzofuran-2-carboxylic acid]
4 |  |  | 5.9 | COc1cccc(Sc2c(C(=O)O)sc3ccccc23)c1 [3-(3-Methoxy-phenylsulfanyl)-benzo[b]thiophene-2-carboxylic acid]
